In this experiment the test system is HL-60. Briefly: Induction of transglutaminase (TGase) activity in HL-60 cells. As to conditions: Homo sapiens.

SMILES strings stand for the structures.

Regarding `C/C(=C\c1ccc(C(=O)O)cc1)c1ccc2c(c1)C(C)(C)CCC2(C)C`, the EC50 is above 1000 nM.

What is called EC50 is the concentration needed to bring the measured effect to its halfway point.

The values above are taken from ChEMBL document CHEMBL1129630, “Synthesis and structure-activity relationships of retinoid X receptor selective diaryl sulfide analogs of retinoic acid” (J Med Chem, 1996).
